Data on one compound can be found in US20260124213A1, “STAPHYLOCOCCUS AUREUS PBP4 INHIBITORS AND METHOD OF USE” (UNIVERSITY OF ROCHESTER, priority 2022, published 2026).

Values joined by “and” are separate entries in the source; they are usually repeats but may differ in a detail not shown here. Equal entries are not always repeated.

The subject of one data set is HEPG2 cells. As to the kind of experiment: MTT cell viability / mammalian cytotoxicity. The conditions noted are these: 100 μM; HEPG2 approx. 2.5 × 10^5 cells/mL; Ex. 3 series. Format: cell-based, human. As to the method:
Eukaryotic Toxicity Testing. Two rounds of eukaryotic toxicity testing were performed. Initially hits of interest were evaluated for antifungal activity in high throughput manner. To do so, 10^5 CFU of Saccharomyces cerevisiae YSB1001 cells (10 μL) were inoculated into individual wells of a microtiter plate containing yeast peptone dextrose media (88 μL) and 50 μM of each hit (2 μL). […] More extensive mammalian cytotoxicity testing was performed on the indicated highest priority hits of interest following International Organization for Standardization guidelines. Briefly, human liver epithelial cells (HEPG2) were cultured in Dulbecco's modified Eagle medium (DMEM; Fisher Scientific®) supplemented with 10% heat inactivated fetal bovine serum (FBS; Corning Life Sciences, Corning, NY) and 1% penicillin and streptomycin. Cells were incubated at 37° C. with 5% CO2 in Nunc™ tissue culture flasks (Roskilde, Denmark) until reaching 70% confluency. Cells were removed with 0.25% trypsin (Fisher Scientific®), resuspended in fresh medium, and used to seed approximately 2.5×10^5 mL^−1 cells into individual wells of a 96 well tissue culture microplate (Nunc™) containing 200 μL of fresh medium, and incubated for 24 hours. […] Mixtures were incubated for 20-24 h at 37° C. with 5% CO2, the media was removed and replaced with 100 μL fresh media and 10 μL of 12 mM (3-(4,5-dimethylthiazol-2-yl)-2,5-diphenyltetrazolium bromide (MTT) reagent (Cyquant™ Cell Viability kit; Invitrogen™, Carlsbad, CA) was added to each well. Cells were incubated at 37° C. with 5% CO2 for 2-4 hour, 85 μL of media was removed and the remainder was mixed with 50 μL DMSO and incubated for an additional 10 minutes at 37° C. in the dark. Using a SpectraMax® M5 microplate reader, cell viability was recorded as absorbance at OD540 nm. All compounds were tested in triplicate and cell viability was expressed as a percent viability of treated cells in comparison to mock treated cells. […]

Data set [1] has as its target recombinant B. subtilis PBP4 (Bacillus subtilis, UniProt P40750). The data set can be described thus: BOCILLIN FL fluorescence polarization binding competition. The note with it: compound 50 μM; Ex. 3 series. As for the experimental part: PBP4 BOCILLIN™ FL Binding Competition Assays. The ability of putative PBP4 inhibitors to impact the active site of recombinant PBP4 was assessed using two previously established BOCILLIN™-FL Penicillin (Penicillin V conjugated to BODIPY fluorescent dye) binding assays. First, fluorescence polarization assays were performed as previously described. Briefly, the indicated amount of the putative PBP4 inhibitor or control antibiotic was incubated with 1 μM recombinant B. subtilis PBP4 or S. aureus PBP2a in potassium phosphate buffer (40 mM K2HPO4 and 10 mM KH2PO4) for 1 hour in black 96-well microtiter plates (Corning Life Sciences®, Corning, NY). Following incubation, 1 μM (final concentration) BOCILLIN™ FL penicillin was added, and the mixture was incubated for 30 minutes. BOCILLIN™ FL fluorescence polarization was measured at (495nm excitation and 545nm emission) in a SpectraMax® M5 multimode plate reader (Molecular Devices®, San Jose, CA). All assays were repeated at least 8 times, averaged, and values falling outside of 2 standard deviations were considered outliers. Resulting data was plotted as percentage BOCILLIN™ FL binding inhibition=(T/U)×100; T=FL polarization of ((PBP4+BOCILLIN™ FL)−(PBP4+BOCILLIN™ FL+inhibitor compound)), U=FL polarization of ((PBP4+BOCILLIN™ FL)−(BOCILLIN™ FL)). Second, gel electrophoresis and fluorescence detection were used to measure BOCILLIN™ FL labeling of PBP4 treated with the known PBP4 inhibitor cefoxitin (positive control), kanamycin (negative control) or 9314848 (test compound). Briefly, 1 μM of recombinant PBP4 was mixed with 0, 50, 500, 2000, or 5000 μM 9314848 or control antibiotic in 50 mM phosphate buffer (pH 7.4) and incubated at 37° C. for 30 minutes. Next 40 μM of BOCILLIN™ FL was added to the reaction mixture and incubated for an additional 30 minutes at 37° C. Reactions were stopped by adding 5×SDS-PAGE gel loading dye, heated at 100° C. for 3 minutes and separated by electrophoresis in 12% SDS-PAGE (2 h, 120 Volts). BOCILLIN™ FL labeled PBP4 was imaged at λ=365 nm using a BioRad© Gel Doc EZ™ Imaging system and the gel was then subsequently stained with Bio-safe Coomassie Brilliant Blue stain (BioRad©, Hercules, CA, USA) to measure the amount of protein present in each reaction condition and analyzed using NIH-ImageJ software. The percent BOCILLIN™ FL binding was calculated by first normalizing the protein present in each reaction condition to that of untreated control and subsequently applying each reaction's protein normalization factor to each reaction's fluorescent signal. The percentage BOCILLIN™ FL binding inhibition was then calculated as the normalized band intensity of antibiotic/compound treated sample as compared to control sample (PBP4+BOCILLIN™ FL in the absence of compound).
To more directly evaluate whether 9314848 is likely to affect PBP4 function, the compound's ability to bind recombinant PBP4 was measured using BOCILLIN™ FL fluorescence polarization displacement assays. The premise for the assay is that the fluorescence polarization of the fluorescently labeled β-lactam, penicillin V (BOCILLIN™ FL), will increase upon binding to its cognate target (i.e., PBP4). Further, compounds that bind PBP4 and inhibit its function would impede BOCILLIN™ FL binding thereby allowing assessment of the protein binding affinity of 9314848 using a simple fluorescence reduction assay.
(Polarisation of emitted light reports the rotation of a fluorescent probe.)

recombinant B. subtilis PBP4, sequence (P40750 22-624): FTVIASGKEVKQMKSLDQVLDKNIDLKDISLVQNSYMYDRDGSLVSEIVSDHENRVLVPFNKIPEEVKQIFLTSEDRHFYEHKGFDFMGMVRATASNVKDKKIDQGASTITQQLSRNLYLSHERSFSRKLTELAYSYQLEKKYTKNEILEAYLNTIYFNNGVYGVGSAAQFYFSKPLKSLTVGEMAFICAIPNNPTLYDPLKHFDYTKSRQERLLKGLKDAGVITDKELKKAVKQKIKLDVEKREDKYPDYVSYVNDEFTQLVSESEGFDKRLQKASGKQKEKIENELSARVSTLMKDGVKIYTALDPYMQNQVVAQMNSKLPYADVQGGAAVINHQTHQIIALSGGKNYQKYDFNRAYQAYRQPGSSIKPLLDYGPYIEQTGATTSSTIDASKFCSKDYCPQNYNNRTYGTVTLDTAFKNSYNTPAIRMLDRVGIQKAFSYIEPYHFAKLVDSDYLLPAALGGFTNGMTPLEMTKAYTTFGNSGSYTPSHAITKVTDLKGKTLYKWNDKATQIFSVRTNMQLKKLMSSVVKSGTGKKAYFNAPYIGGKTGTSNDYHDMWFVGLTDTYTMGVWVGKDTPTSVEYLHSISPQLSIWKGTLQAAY

As to `O=C(Nc1ccc2[nH]c(-c3cccs3)nc2c1)c1ccco1` [Compound 1 (7729837)], in the data set on HEPG2 cells, the “Toxicity with HEPG2 Cells (cell viability)” value is 95±16.8%. The “Percentage Bocillin Displacement (%), PBP4 binding” value in data set [1] was 25.66% and 25.66 ± 18.09%.
